Laboratory results: a melting point compilation (Tetko et al.; mined from patent text by program, amines drawn as free bases though some values may be those of a salt)

Structure (SMILES) | melting point [°C]
Cn1cccc1CNCC1(c2cccc(C(F)(F)F)c2)CCN(C(=O)CN2CCN(c3cnccn3)CC2)CC1 | 104 to 105
CC1(C)CC(=C(c2ccc(O)cc2)c2ccc(C#CCCO)cc2)CC(C)(C)C1 | 183 to 184
COC(=O)C1=C(C)NC(C)=C(C(=O)OC)C1c1cccc(NC(=O)C(F)(F)F)c1 | 231 to 232
CCCc1c(O)c(C(C)=O)c(C)c2c1OC(C)(C)CC2C (stereo not given) | 74 to 75
CN(C)C(=O)c1c(-c2ccccc2)oc2c(CCl)cccc2c1=O | 202 to 203
CC(C)(C)CN1C(=O)C(=O)N(c2ccc(F)cc2F)C1=S | 156 to 157
COC(=O)CCc1ccc(OCc2sc3ccccc3c2Cl)cc1 | 97 to 98
CC(=O)n1cc(/C=C2\N=C(c3ccccc3)OC2=O)c2cc(Cl)cnc21 | 242
CCC(C#N)=C1CCN(c2ccc(N3C[C@H](CNC(=O)CBr)OC3=O)cc2F)CC1 | 200 to 203
COc1cc2c(c(Cl)c1Cl)C(=O)CC2 | 154 to 156
CCCc1[nH]c(C(=O)OCC)c(CCC)c1C | 78 to 80
CCC(NC(=O)c1c(NC(C)=O)c(NC(C)=O)cc2c1OCCO2)N1CCCCC1 (stereo not given) | > 260
O=C(O)c1ccc(C(=O)N2Cc3cccn3Cc3ccccc32)c(Cl)c1 | 198 to 199
O=C(O)CS(=O)(=O)Oc1cccc(-c2cn3c(n2)sc2ccccc23)c1 | 156 to 158
Cc1c[nH]c(=O)n(-c2cc(C(=O)OC(C)C)c(Cl)cc2F)c1=O | 170 to 173
Cc1csc2nc3c(c(NC(=O)CN4C(=O)NC(=O)[C@@H]4C)c12)CCCC3 | 273 to 277
CCCc1c(OCCCS(=O)(=O)c2ccc(C(=O)NCC(=O)O)cc2)ccc(C(C)=O)c1O | 171 to 173
COc1cccc(OC)c1C(=O)P(=O)(C(=O)c1c(C)cc(C)cc1C)c1ccccc1 (stereo not given) | 126 to 127
CCOC(=O)c1cc(C(O)CBr)c(=O)[nH]c1C(=O)OCC (stereo not given) | 134 to 138
O=C(Nc1ncccn1)c1c(Cl)ccc2c1OCCO2 | 223
CCCC1CCC(O)(c2ccc(CCCCc3ccc(C4(O)CCC(CCC)CC4)cc3)cc2)CC1 (stereo not given) | 136
CCCCCCCCCC(=O)Oc1ccc(N)cc1OC(=O)CCCCCCCCC | 44 to 46
O=S(=O)(Nc1ccc2cnccc2c1)c1ccccc1 | 204 to 206
COc1ccc(S(=O)(=O)Nc2c(Cl)cncc2Cl)c2c1oc1ccccc12 | 242 to 244
Cn1cc(-c2ccc(Cl)cc2Cl)c(=O)cc1C(F)(F)F | 205 to 206

Structure (SMILES) | melting point [°C]
CC1(CC(=O)O)OCCc2nc(-c3ccc(Cl)cc3)sc21 (stereo not given) | 162 to 164
O=C1N[C@H](Cc2ccc(C(F)(F)F)cc2)[C@H](c2ccccc2)O1 (racemic) | 158 to 159
COC(=O)[C@H](Cc1ccc([N+](=O)[O-])cc1)NC(=S)C1(CCCCS(C)(=O)=O)CCC1 | 150 to 152
O=C1c2ccc(Br)cc2C(=O)N1c1ccc2c(c1)C=C2 | 167 to 168
COC(=O)C(=C1NCCCS1)[N+](=O)[O-] | 107 to 108
CCN(CC)C(=S)Oc1ccc2c(c1)Oc1ccccc1S2 | 121 to 123
CP(C)(=O)CNc1cc(Oc2ncc(Cl)cc2Cl)ccc1[N+](=O)[O-] | 153 to 155
CC(C)c1ccc(S(=O)(=O)Nc2cnc(I)cc2C(F)(F)F)cc1 | 156
N#CCCCCOc1ccc(C=Cc2ccncc2)cc1 | 85 to 87
NC(=NC(=O)Cn1c(Cl)ccc1Cl)NC(=O)c1ccc(Cl)cc1 | 198 to 200
Cc1c(C(N)=O)sc2cncc(Oc3ccc(Cl)cc3)c12 | 174 to 175
O=C1CCC(N2C(=O)c3ccc(CNC(=O)c4ccc(SC(F)(F)F)cc4)cc3C2=O)C(=O)N1 (stereo not given) | 171 to 173
Cc1cccc([N+](=O)[O-])c1Br | 36 to 41
O=C(c1ccc(F)cc1)n1c2c(c3ccccc31)CC(C(=O)O)(C(=O)O)CC2 | 190 to 195
O=C(O)c1ccc(C(=O)NC/C=C/c2ccccc2)cc1 | 176 to 178
COc1cc(C)c(S(=O)(=O)c2cccc(C)c2)cc1OC | 135 to 140
CCCc1nc2c(N)nc3ccccc3c2n1CCCC1(C)OCCO1 | 184 to 186
CCCN(Cc1ccc(-c2ccccc2-c2nnnn2C(c2ccccc2)(c2ccccc2)c2ccccc2)cc1)c1nc(C)nnc1C(=O)OCC | 178 to 179
C#CCNC(NCCSCc1[nH]cnc1C)=C(C#N)C(N)=O | 88 to 94
CCCNC(=O)C1(CCCCN2CCC(N3Cc4ccccc4C3=O)CC2)CCc2ccccc21 (stereo not given) | 61 to 63
Cc1sc(N2C(=O)OCC2(C)C)nc1-c1ccc(Br)cc1 | 175 to 176
C=CCCN1CCN(c2nc(C)c(C(=O)NCc3cccnc3)s2)C1=O | 144 to 145
CNC(=O)Cc1cccc2c(C(C)C)nccc12 | 153 to 154
CN1CCc2c(c3ccccc3n2CCc2nc(-c3ccccc3)cs2)C1 | 128 to 130
COc1cccc(Cn2cnc3c(-c4ccco4)ncnc32)c1 | 138 to 139

Structure (SMILES) | melting point [°C]
COC(=O)C(Oc1ccc(Cl)c(C(F)(F)F)c1)c1ccc(Cl)cc1 (stereo not given) | 58
Cc1c(Cc2cccnc2)sc2cc(C(=O)O)ccc12 | 248 to 249
CC1(C)SC2C(NC(=O)CNC(=O)NC(=N)Cc3ccc(Cl)cc3)C(=O)N2C1c1nnn[nH]1 (stereo not given) | 150 to 162
O=C1N[C@H](c2ccccc2)CSC[C@@H]1N1C(=O)c2ccccc2C1=O | 280 to 282
OC(Cc1nnccc1-c1c(-c2ccccc2)nn2ccccc12)C(Cl)(Cl)Cl (stereo not given) | 206 to 207
CNC(=O)Nc1ccc(CCN2CCC(Nc3nc4ccccc4n3Cc3ccc(F)cc3)CC2)cc1 | 300
O=c1[nH]cccc1Cc1ccccc1 | 158 to 160
CCOC(=O)COc1ccc2c(c1)C(=O)CCC2 | 84 to 86
O=S(=O)(Nc1cc(Cl)c(Cl)c(Cl)c1)c1cc(S(=O)(=O)Nc2cc(Cl)c(Cl)c(Cl)c2)c2cc(O)ccc2c1 | 164 to 166
COc1ccc2c(Cc3c(Cl)cncc3Cl)nnc(N3CCCC3)c2c1 | 170 to 172
OCc1cc(Cl)c(Cl)cc1CO | 128 to 136
NS(=O)(=O)c1ccsc1C1=CC(=O)CCC1 | 140 to 147
COc1ccc(S(=O)(=O)NCCc2ccc(C(=O)O)cc2)cc1 | 177 to 178
CC(C)(C)OC(=O)N1CCC(Oc2ccc(Cc3cc4cc(C#N)ccc4o3)cc2)CC1 | 144 to 146
Nc1nn(-c2ccccc2)c(N)c1CN1CCN(c2cccc3c2OCCO3)CC1 | 84 to 87
CNc1c2c(nc3ccc([N+](=O)[O-])cc13)CCCC2=O | 208
NC(=O)c1cc(Oc2cccc(CO)c2)ccn1 | 113
CCOCn1c(N(C(C)=O)c2cc(C)cc(C)c2)c(CC)c(=O)[nH]c1=O | 182 to 183
COC(=O)C1Cc2c(ncn2Cc2ccccc2)CN1Cc1ccccc1 (stereo not given) | 91 to 93
COc1ccc(-c2[nH]nc3c2C(=O)c2c(NC(C)=O)cccc2-3)cc1 | 174 to 175
CNC(=O)[C@H](NC(=O)c1ccc(F)cc1C(F)(F)F)[C@@H](CN)c1ccccc1 (racemic) | 188
Fc1cccc(Cl)c1C1C=C(c2ccc(Cl)cc2)Nc2ncnn21 (stereo not given) | 213 to 215
CCC(CC)(c1ccc(F)cc1F)c1c[nH]c2c(NS(C)(=O)=O)cccc12 | 144 to 147
CCCCCCCCCCCCCc1nnc(C=Cc2ncc([N+](=O)[O-])n2C)s1 | 91
COc1ccc2nc(-c3ccc(OC)c(F)c3)cc(C#N)c2c1 | 189 to 190

Structure (SMILES) | melting point [°C]
O=C(O)/C=C/c1ccc(C(=O)c2c(-c3ccc(O)cc3)sc3cc(O)ccc23)cc1 | 155 to 160
CCN1C(=O)CCCc2ccc(Nc3ncc(Cl)c(Nc4c(F)cccc4C(=O)NC)n3)cc21 | 228 to 235
O=c1oc(C(F)(F)F)nc2ccc(I)cc12 | 131 to 132
CCc1c(CCNC(=O)C(F)(F)F)ccc(OC)c1OC | 80 to 81
O=C1Nc2cc(Br)ccc2N2CCc3cccc1c32 | 255 to 257
CCC(c1ccc(-c2ccc(Cl)cc2)cc1)N1CCNCC1 (stereo not given) | 95 to 97
Cc1cc(Br)cc(C)c1N[N+](=O)[O-] | 129 to 131
Nc1nc(F)nc2c1ncn2C1OC(COCc2ccccc2)C(OCc2ccccc2)C1OCc1ccccc1 (stereo not given) | 157 to 159
O=C(O)Cn1c(-c2ccccc2)ncc(NC(=O)OCc2ccccc2)c1=O | 179 to 183
Cn1cncc1COCC(O)c1ccc(OCc2ccccc2)cc1 (stereo not given) | 148 to 150
CN(C)C=NS(=O)(=O)c1cc2cnc(CO)cc2o1 | 161 to 163
N#CC(C#N)CC(CC(F)(F)C(F)(F)C(F)(F)C(F)F)SC(F)(F)F (stereo not given) | 72 to 74
N#Cc1cccc(-c2ccc(-c3cccc(C#N)c3)o2)c1 | 163 to 164
C=CCN1C(=O)C(C)N(c2ccc(OCc3ccccc3)cc2)C1=S (stereo not given) | 88 to 90
COc1cc(C(=O)OC(C)C)cc(OC)c1Cc1cnc(N)nc1N | 209 to 213
CCCN(CCC)C(=O)COc1nc(-c2ccc(F)cc2)nc2c1CCCC2 | 95 to 96
Cc1csc(=S)n1OC(=O)c1ccccc1 | 100 to 102
O=C(O)C=CC(=O)c1ccc(Oc2ccc(Cl)c(Cl)c2)cc1 | 155 to 156
C=CC#CCn1c(-c2ccccc2)nc(C(F)(F)F)c(CC)c1=O | 104 to 106
O=C(/C=C/c1ccc([N+](=O)[O-])cc1)c1cc2ccccc2oc1=O | 272 to 274
O=C(Nc1ccc2[nH]c(=O)oc2c1)C(=O)N1CCC(Cc2ccc(Cl)cc2)CC1 | 147 to 148
CC(C)(C)OC(=O)COc1ccc(C(=O)O)cc1OCC(=O)OC(C)(C)C | 118 to 120
CCCCc1nc(C(C)(O)CC)c(C#N)n1C(c1ccccc1)(c1ccccc1)c1ccccc1 (stereo not given) | 90 to 93
O=C(Nc1ccc2c(c1)CCN2)C(=O)N1CCC(Cc2ccccc2)CC1 | 75 to 76
CSc1ncc(CCN2CCC(C3(c4ccc(F)cc4)OCCO3)CC2)c(O)n1 | 206
